Measurements taken from patent US20200223894A1, “PEPTIDES FOR THE TREATMENT OF CONDITIONS ASSOCIATED WITH ADIPONECTIN DYSFUNCTION” (AUCKLAND UNISERVICES LIMITED, priority 2017, published 2020).

Columns and labels:
3T3-L1 adipocytes = test: Adiponectin levels and oligomeric distribution in conditioned media and cell lysate of peptide-treated adipocytes (Western blotting); assay type: cell-based, murine; details: for amount of HMW adiponectin in the cell lysate / sub-population of the hexametric adiponectin in the cell lysate: compared to IgM-derived cargo peptides; for HMW adiponectin level in conditioned media / hexamer adiponectin level in conditioned media / trimeric adiponectin level in conditioned media: non-reducing SDS-PAGE
Method: 3T3-L1 cells (ATCC #CL-173, Manassas, Va., USA) were cultured in Dulbecco's Modified Eagle Medium (DMEM) supplemented with 10% fetal bovine serum (FBS) and 1% penicillin-streptomycin-fungisone (PSF) at 37° C. and under 5% CO2 95% humidified air. For differentiation, the confluent 3T3-L1 cultures were supplemented with 10 μg/ml insulin, 0.25 μM dexamethasone and 0.5 mM isobutylmethylxanthine for two days, followed by incubation with 10 μg/ml insulin in the culture medium for another two days. Subsequently, cells were incubated in DMEM with 10% FBS that was changed every two days. Peptide treatment (200 nM in FBS-free medium) was performed in fully differentiated 3T3-L1 adipocyte cultures. After incubation for 24 h, cell lysates and the conditioned medium were collected for subsequent analyses.
(§1) Cells or adipose tissues were washed with phosphate buffer (137 mM NaCl, 2.7 mM KCl, 4.3 mM Na2HPO4, 1.47 mM KH2PO4, pH 7.4) and then solubilized in lysis buffer (25 mM Tris-HCl pH 7.5, 150 mM NaCl, 5 mM NaF, 1% sodium deoxycholate, 1% Nonidet P-40, 1% Triton X-100 plus protease inhibitor mixtures). Equal amounts of lysates (100 μg) were precleared with protein G (Thermo Fisher Scientific, Waltham, Mass., USA) and incubated overnight with specific antibodies at 4° C. with shaking.
(§2) After incubating with protein G for another four hours, the immune-complexes were precipitated by low-speed centrifugation, washed three times with lysis buffer, and eluted in SDS-PAGE sample buffer (50 mM Tris-HCl pH 6.8, 1% SDS, 5% glycerol, 3% β-mercaptomethanol, 0.01% bromophenal blue) or 0.1 M glycine HCl (pH 3.0) and then diluted with non-reducing sample buffer (1% SDS, 5% glycerol, 10 mM Tris-HCl pH6.8) for analyzing adiponectin monomers and oligomers by Western blotting.
Cell lysates, media or serum samples were incubated with non-reducing sample buffer at room temperature for 10 minutes and then separated by 4-20% gradient SDS-PAGE. After transferring to polyvinylidene difluoride (PVDF) membranes, immunoblotting was performed using an in-house antibody against murine adiponectin developed by Antibody and Immunoassay Services, HKU (http://www.pharma.hku.hk/sweb/antibody/PolyclonalAntibodyCont.php?polyclonal_no=60 0005), or antibodies against ERp44 (Santa Cruz Biotechnology, Santa Cruz, Calif.), DsbA-L (Abcam, Cambridge, Mass., USA). Protein bands were quantified by ImageJ and intensities were compared. All experiments were repeated at least six times.

[1] = system: C57/BL6 mice fed a high fat diet; test: Serum total and HMW adiponectin in high fat diet mice after acute peptide injection; assay type: in vivo, mouse; details: HFD mice, 10 mg/kg i.p.; for HMW form of adiponectin in serum: normalized to corresponding cargo peptide
Method: (§3) All experimental protocols were approved by the Committee on the Use of Live Animals for Teaching and Research of the University of Hong Kong and carried out in accordance with ARRIVE (Animal Research: Reporting of In Vivo Experiments) as well as institutional guidelines for the care and use of laboratory animals. Mice of the C57BL/6J background were housed in a room under controlled temperature (23±1° C.) with 12 hour light-dark cycles and free access to water and food. Mice were fed with either standard chow (STC; 3.07 kcal/g, LabDiet 5053, Purina Mills, Richmond, Ind., USA) or high-fat diet (HFD; 4.73 kcal/g containing 45% fat, 20% protein and 35% carbohydrate, D12451, Research diet, N.J., USA) starting from four-weeks old.
Immunoprecipitation and Western blotting studies were performed on serum adipose tissue samples obtained from mice as described above in Example 2. The serum was collected 24 hours after injection.
Mice were administered intraperitoneally with the peptides described in Table 2 (10 mg/kg body weight for acute studies at 16-weeks old or 5 mg/kg/day for four-week chronic treatment at 12-weeks old). Body weights of the animals were monitored on a weekly basis. Fasting blood glucose was determined after 16-hours food starvation (from 6:00 pm to 10:00 am) by a Accu-Check Advantage II Glucometer (Roche Diagnostics Mannheim, Germany). Fasting body fat mass was determined by the minispec Body Composition Analyzer (Bruker Optics Inc., Tex., USA). Circulating and tissue contents of lipids, including triglycerides and total cholesterols, were analyzed using LiquiColor® Triglycerides and Stanbio Cholesterol assay kits, respectively. Serum adiponectin concentrations were determined with an in-house ELISA kit as described (Wang et al., 2006 J Biol Chem 281: 16391-16400). Serum insulin levels were measured with an in-house mouse insulin ELISA kit (Cat No. 32100, http://www.pharma.hku.hk/sweb/antibody/ELISA.php). Homeostatic Model Assessment of […]

[2] = system: C57/BL6 mice fed a standard chow diet (STC) or high fat diet (HFD); test: Four-week chronic peptide treatment of mice on STC or HFD: insulin sensitivity and energy homeostasis; assay type: in vivo, mouse; details: 5 mg/kg/day i.p., four weeks; for HFD-induced hyperglycemia (fasting glucose levels): 16-hours fasting
Method: as §3
Mice were administered intraperitoneally with the peptides described in Table 2 (10 mg/kg body weight for acute studies at 16-weeks old or 5 mg/kg/day for four-week chronic treatment at 12-weeks old). Body weights of the animals were monitored on a weekly basis. Fasting blood glucose was determined after 16-hours food starvation (from 6:00 pm to 10:00 am) by a Accu-Check Advantage II Glucometer (Roche Diagnostics Mannheim, Germany). Fasting body fat mass was determined by the minispec Body Composition Analyzer (Bruker Optics Inc., Tex., USA). Circulating and tissue contents of lipids, including triglycerides and total cholesterols, were analyzed using LiquiColor® Triglycerides and Stanbio Cholesterol assay kits, respectively. Serum adiponectin concentrations were determined with an in-house ELISA kit as described (Wang et al., 2006 J Biol Chem 281: 16391-16400). Serum insulin levels were measured with an in-house mouse insulin ELISA kit (Cat No. 32100, http://www.pharma.hku.hk/sweb/antibody/ELISA.php). Homeostatic Model Assessment of
Insulin Resistance (HOMA-IR) was calculated as fasting insulin (μU/ml)×fasting glucose (mmol/L)/22.5 for comparison as described (Xu et al., 2013). All results were compared between mice treated with control and CPP peptides.

[3] = biological target: T1, ERp44-adiponectin interaction (Mus musculus, UniProt Q9D1Q6); test: ERp44-adiponectin interaction in mouse adipose tissue lysates by co-immunoprecipitation; assay type: in vivo; details: HFD mice
T1 construct: from tissue; host or cells: adipose tissue of C57BL/6J mice on a high-fat diet, treated i.p. with the peptides
T1 sequence (Q9D1Q6 30-406): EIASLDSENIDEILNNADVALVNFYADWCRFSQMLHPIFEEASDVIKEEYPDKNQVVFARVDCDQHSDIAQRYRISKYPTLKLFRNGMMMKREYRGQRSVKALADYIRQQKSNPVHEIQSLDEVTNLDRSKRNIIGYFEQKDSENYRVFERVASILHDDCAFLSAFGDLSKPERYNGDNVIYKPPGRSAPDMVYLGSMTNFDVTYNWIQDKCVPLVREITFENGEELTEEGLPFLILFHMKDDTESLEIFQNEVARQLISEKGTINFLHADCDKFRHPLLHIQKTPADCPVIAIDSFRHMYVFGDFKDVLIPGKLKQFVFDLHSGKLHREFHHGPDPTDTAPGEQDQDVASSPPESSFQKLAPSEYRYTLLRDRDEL
Method: as §1, §2
Cell lysates, media or serum samples were incubated with non-reducing sample buffer at room temperature for 10 minutes and then separated by 4-20% gradient SDS-PAGE. […] Protein bands were quantified by ImageJ and intensities were compared. […]

[4] = biological target: T2, Recombinant mouse ERp44 (murine ERp44 without the signal sequence, monomeric fraction) (mouse, UniProt Q9D1Q6 30-406); test: ESI-MS, recombinant mouse ERp44 43 uM with 430 uM peptide, 4 days
T2 construct: mature; Cloned into pET28b at the NheI and XhoI sites and expressed in E. coli; The monomer fraction from Superdex-200 was used; Free ERp44 is observed at 46,074 amu in ESI-MS; also called recombinant ERp44
T2 sequence (looked up): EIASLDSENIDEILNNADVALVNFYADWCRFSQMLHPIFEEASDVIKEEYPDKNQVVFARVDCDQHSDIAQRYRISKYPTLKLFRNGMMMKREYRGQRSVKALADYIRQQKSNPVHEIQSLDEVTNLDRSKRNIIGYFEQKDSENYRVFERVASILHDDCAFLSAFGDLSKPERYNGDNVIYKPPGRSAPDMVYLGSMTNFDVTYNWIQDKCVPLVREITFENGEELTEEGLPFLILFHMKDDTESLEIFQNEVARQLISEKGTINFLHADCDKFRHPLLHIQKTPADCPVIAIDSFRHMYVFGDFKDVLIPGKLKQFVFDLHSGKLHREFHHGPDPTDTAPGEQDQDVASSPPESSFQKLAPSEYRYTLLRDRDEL

[5] = biological target: T2, Recombinant mouse ERp44 (murine ERp44 …); test: ESI-MS of ERp44 (43 uM) incubated with 10-fold excess peptide (430 uM), 4 days, pH 6.5; disulfide-linked complex
[6] = 200 nM peptide, 24 h, cell lysate
[7] = 200 nM peptide, 24 h, conditioned media, vs corresponding non-CPP cargo peptide
[8] = serum 24 hours after injection, vs corresponding cargo peptide only group

## YGRKKKRRQQRRRDTGGTCY [CPP-M2]
3T3-L1 adipocytes; [6]
  intracellular adiponectin levels: decreased
3T3-L1 adipocytes; [7]
  increase in total amount of adiponectin secreted in the media: ~53%
3T3-L1 adipocytes; 200 nM, cell lysate
  amount of HMW adiponectin in the cell lysate: significantly increased
  sub-population of the hexametric adiponectin in the cell lysate: decreased
3T3-L1 adipocytes; 200 nM, conditioned media
  HMW adiponectin level in conditioned media: significantly elevated
  hexamer adiponectin level in conditioned media: significantly elevated
  trimeric adiponectin level in conditioned media: significantly elevated
[1]; [8]
  increase in circulating concentration of adiponectin: ~34%
[1]
  HMW form of adiponectin in serum: increased
[2]
  HFD-induced insulin resistance (calculated HOMA-IR): significantly blocked
  HFD-induced reduction of adiponectin concentrations in serum: prevented the reduction
  circulating cholesterol levels: significantly reduced
  circulating triglyceride levels: significantly reduced
  lipid (triglyceride) accumulation in livers: attenuated
  HFD-induced hyperglycemia (fasting glucose levels): significantly blocked

## YGRKKKRRQQRRRGTCY [CPP-M1]
3T3-L1 adipocytes; [6]
  intracellular adiponectin levels: decreased
3T3-L1 adipocytes; [7]
  increase in total amount of adiponectin secreted in the media: ~45%
3T3-L1 adipocytes; 200 nM, cell lysate
  amount of HMW adiponectin in the cell lysate: significantly increased
  sub-population of the hexametric adiponectin in the cell lysate: decreased
3T3-L1 adipocytes; 200 nM, conditioned media
  HMW adiponectin level in conditioned media: significantly elevated
  hexamer adiponectin level in conditioned media: significantly elevated
  trimeric adiponectin level in conditioned media: significantly elevated
[1]; [8]
  increase in circulating concentration of adiponectin: ~28%
[1]
  HMW form of adiponectin in serum: increased
[2]
  HFD-induced insulin resistance (calculated HOMA-IR): significantly blocked
  HFD-induced reduction of adiponectin concentrations in serum: prevented the reduction
  circulating cholesterol levels: significantly reduced
  circulating triglyceride levels: significantly reduced
  lipid (triglyceride) accumulation in livers: attenuated
  HFD-induced hyperglycemia (fasting glucose levels): significantly blocked
[2]; compared to M1 cargo peptide
  body fat mass under HFD: significantly decreased

## YGRKKRRQQRRRKGTCAGWMA [CPP-adiponectin]
[3]
  amount of adiponectin bound to ERp44 in mouse adipose tissue: significantly decreased
3T3-L1 adipocytes; [6]
  intracellular adiponectin levels: increased
3T3-L1 adipocytes; [7]
  reduction of total amount of adiponectin in the conditioned media: ~16%
3T3-L1 adipocytes; 200 nM, cell lysate
  oligomeric composition of adiponectin in the cell lysate: shifted towards the trimer
3T3-L1 adipocytes; 200 nM, conditioned media
  HMW adiponectin level in conditioned media: significantly reduced
  trimeric adiponectin level in conditioned media: significantly reduced
[1]; [8]
  decrease in circulating concentration of adiponectin: ~14%
[1]
  HMW form of adiponectin in serum: significantly decreased

## DTGGTCY [M2 (IgM-derived cargo peptide DTGGTCY)]
[4]
  binding result: binds

## GTCY [M1 (IgM-derived cargo peptide GTCY)]
[5]
  binding result: binds

## KGTCAGWMA (also called adiponectin derived peptide) [Adiponectin peptide (adiponectin-derived cargo peptide KGTCAGWMA)]
[5]
  binding result: binds
